Experimental data published in the supplement of paper PMC11208160.

assay: recombinant UMI read abundance after kanamycin selection (control-corrected) (log10(CPM+1)); higher = more efficient recombination; extreme values may be limits of the assay; sequences stand for … in AGTGCAGAGAAAATCGGCCAGTTTTCTCTGCCTGCAGTCCGCATGCCGTGGGACCCCTTGGGTTCTAACCTGTTGCCTAGATTTATGCAGCGGACTGCCTTTCTCCCAAAGTGATAAACCGG…AGGTTGGTTTCACT; site = the 11-nt donor
Procedure, shortened: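 Reported values are log10(CPM+1) from a pooled Escherichia coli screen of donor and donor-binding-loop pairs for the IS621 bridge recombinase. Selection used IPTG (0.07 mM) plus kanamycin, against unselected plating, each in two replicates. Recombinant UMIs were amplified across the donor–target junction, sequenced, converted to CPM, averaged over replicates and scaled by control-derived factors.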
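Also: IS621 bridge recombinase in Escherichia coli cells against a fixed T5 target plasmid.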

Sequence	recombinant UMI read abundance (log10)
CTATGATCATGGACCGGTTTTCCCGGTAATCCGTATTTGCA (site CTATGATCTTG)	2.62
CTATGCTCATGGACCGGTTTTCCCGGTAATCCGTATTTGAA (site CAATGCTCTTT)	0.941
CTATGCTCATGGACCGGTTTTCCCGGTAATCCGTATTTGAA (site CCATGCTCTTT)	0.497
CTATGCTCATGGACCGGTTTTCCCGGTAATCCGTATTTGAA (site CGATGCTCTTT)	0.383
CTATGCTCATGGACCGGTTTTCCCGGTAATCCGTATTTGAA (site CTATGCTCTTT)	2.25
CTATTACCATGGACCGGTTTTCCCGGTAATCCGTATTTGAG (site CTATTACCTCT)	0.00551
CTATTATCATGGACCGGTTTTCCCGGTAATCCGTATTTGAC (site CTAATATCTGT)	0
CTATTATCATGGACCGGTTTTCCCGGTAATCCGTATTTGAC (site CTACTATCTGT)	1.96
CTATTATCATGGACCGGTTTTCCCGGTAATCCGTATTTGAC (site CTAGTATCTGT)	1.61
CTATTATCATGGACCGGTTTTCCCGGTAATCCGTATTTGAC (site CTATTATCTGT)	2.82
CTATTATCATGGACCGGTTTTCCCGGTAATCCGTATTTGAT (site CTAGTATCTGT)	0
CTATTATCATGGACCGGTTTTCCCGGTAATCCGTATTTGAT (site CTATTATCTAT)	1.18
CTATTTCCATGGACCGGTTTTCCCGGTAATCCGTATTTGGA (site CTATTTCCTTC)	0
CTCAATTCATGGACCGGTTTTCCCGGTAATCCGTATTTGCT (site CTCAATTCTAG)	1.7
CTCACAACATGGACCGGTTTTCCCGGTAATCCGTATTTGTG (site CTCACAACTCA)	0
CTCACACCATGGACCGGTTTTCCCGGTAATCCGTATTTGTC (site CTCACACCTGA)	0
CTCACGCCATGGACCGGTTTTCCCGGTAATCCGTATTTGTG (site CTCACGCCTCA)	0
CTCACTACATGGACCGGTTTTCCCGGTAATCCGTATTTGAG (site CTCACTACTCT)	0.232
CTCACTACATGGACCGGTTTTCCCGGTAATCCGTATTTGAG (site CTCCCTACTCT)	0
CTCACTACATGGACCGGTTTTCCCGGTAATCCGTATTTGAG (site CTCGCTACTCT)	0
CTCACTACATGGACCGGTTTTCCCGGTAATCCGTATTTGAG (site CTCTCTACTCT)	0
CTCACTCCATGGACCGGTTTTCCCGGTAATCCGTATTTGTA (site CTCACTCCTTA)	0.981
CTCATACCATGGACCGGTTTTCCCGGTAATCCGTATTTGGT (site CTCATACCTAC)	0

Sequence	recombinant UMI read abundance (log10)
CTCATATCATGGACCGGTTTTCCCGGTAATCCGTATTTGAC (site CTAGTATCTGT)	0
CTCATATCATGGACCGGTTTTCCCGGTAATCCGTATTTGAC (site CTCATATCTGT)	1.29
CTCATTTCATGGACCGGTTTTCCCGGTAATCCGTATTTGTG (site CTCATTTCTCA)	0
CTCCAAGCATGGACCGGTTTTCCCGGTAATCCGTATTTGAG (site ATCCAAGCTCT)	0.0148
CTCCAAGCATGGACCGGTTTTCCCGGTAATCCGTATTTGAG (site CTCCAAGCTCT)	0.456
CTCCAAGCATGGACCGGTTTTCCCGGTAATCCGTATTTGAG (site GTCCAAGCTCT)	0.0157
CTCCAAGCATGGACCGGTTTTCCCGGTAATCCGTATTTGAG (site TTCCAAGCTCT)	0.018
CTCCACACATGGACCGGTTTTCCCGGTAATCCGTATTTGAC (site CTCCACACTGT)	2.47
CTCCACACATGGACCGGTTTTCCCGGTAATCCGTATTTGTA (site CACCACACTTA)	1.47
CTCCACACATGGACCGGTTTTCCCGGTAATCCGTATTTGTA (site CCCCACACTTA)	0.728
CTCCACACATGGACCGGTTTTCCCGGTAATCCGTATTTGTA (site CGCCACACTTA)	0.289
CTCCACACATGGACCGGTTTTCCCGGTAATCCGTATTTGTA (site CTCCACACTTA)	1.33
CTCCATACATGGACCGGTTTTCCCGGTAATCCGTATTTGAG (site CTCCATACTCT)	1.27
CTCCATACATGGACCGGTTTTCCCGGTAATCCGTATTTGAG (site CTCCCTACTCT)	0.0258
CTCCATACATGGACCGGTTTTCCCGGTAATCCGTATTTGAG (site CTCCGTACTCT)	0.0224
CTCCATACATGGACCGGTTTTCCCGGTAATCCGTATTTGAG (site CTCCTTACTCT)	0.0162
CTCCCTACATGGACCGGTTTTCCCGGTAATCCGTATTTGAA (site CTCCCTACTAT)	0.112
CTCCCTACATGGACCGGTTTTCCCGGTAATCCGTATTTGAA (site CTCCCTACTCT)	0.0285
CTCCCTACATGGACCGGTTTTCCCGGTAATCCGTATTTGAA (site CTCCCTACTGT)	0
CTCCCTACATGGACCGGTTTTCCCGGTAATCCGTATTTGAA (site CTCCCTACTTT)	0.46
CTCCCTACATGGACCGGTTTTCCCGGTAATCCGTATTTGAC (site CTCCCTACTAT)	0.576
CTCCCTACATGGACCGGTTTTCCCGGTAATCCGTATTTGAC (site CTCCCTACTCT)	0.293
CTCCCTACATGGACCGGTTTTCCCGGTAATCCGTATTTGAC (site CTCCCTACTGT)	1.88

Sequence	recombinant UMI read abundance (log10)
CTCCCTACATGGACCGGTTTTCCCGGTAATCCGTATTTGAC (site CTCCCTACTTT)	0.415
CTCCCTACATGGACCGGTTTTCCCGGTAATCCGTATTTGAG (site ATCCCTACTCT)	0.0141
CTCCCTACATGGACCGGTTTTCCCGGTAATCCGTATTTGAG (site CACCCTACTCT)	0.112
CTCCCTACATGGACCGGTTTTCCCGGTAATCCGTATTTGAG (site CCCCCTACTCT)	0.0077
CTCCCTACATGGACCGGTTTTCCCGGTAATCCGTATTTGAG (site CGCCCTACTCT)	0.0122
CTCCCTACATGGACCGGTTTTCCCGGTAATCCGTATTTGAG (site CTACCTACTCT)	0.0126
CTCCCTACATGGACCGGTTTTCCCGGTAATCCGTATTTGAG (site CTCACTACTCT)	0.0117
CTCCCTACATGGACCGGTTTTCCCGGTAATCCGTATTTGAG (site CTCCATACTCT)	0.00249
CTCCCTACATGGACCGGTTTTCCCGGTAATCCGTATTTGAG (site CTCCCAACTCT)	0.00701
CTCCCTACATGGACCGGTTTTCCCGGTAATCCGTATTTGAG (site CTCCCCACTCT)	0.0165
CTCCCTACATGGACCGGTTTTCCCGGTAATCCGTATTTGAG (site CTCCCGACTCT)	0.0234
CTCCCTACATGGACCGGTTTTCCCGGTAATCCGTATTTGAG (site CTCCCTACTAT)	0.455
CTCCCTACATGGACCGGTTTTCCCGGTAATCCGTATTTGAG (site CTCCCTACTCA)	0.0198
CTCCCTACATGGACCGGTTTTCCCGGTAATCCGTATTTGAG (site CTCCCTACTCC)	0.0101
CTCCCTACATGGACCGGTTTTCCCGGTAATCCGTATTTGAG (site CTCCCTACTCG)	0.00797
CTCCCTACATGGACCGGTTTTCCCGGTAATCCGTATTTGAG (site CTCCCTACTCT)	0.248
CTCCCTACATGGACCGGTTTTCCCGGTAATCCGTATTTGAG (site CTCCCTACTGT)	0
CTCCCTACATGGACCGGTTTTCCCGGTAATCCGTATTTGAG (site CTCCCTACTTT)	0.0136
CTCCCTACATGGACCGGTTTTCCCGGTAATCCGTATTTGAG (site CTCCCTCCTCT)	0.00493
CTCCCTACATGGACCGGTTTTCCCGGTAATCCGTATTTGAG (site CTCCCTGCTCT)	0.0117
CTCCCTACATGGACCGGTTTTCCCGGTAATCCGTATTTGAG (site CTCCCTTCTCT)	0.0166
CTCCCTACATGGACCGGTTTTCCCGGTAATCCGTATTTGAG (site CTCCGTACTCT)	0.0179
